Measured values reported in patent publication US8450374B2, “Pan-antagonists for the androgen receptor and androgen receptor mutants associated with anti-androgen withdrawal” (priority 2009, dated 2013).
Changes are numbered by the printed parent chain.

Tests used:
[1] = biological target: T1, AR W741L (Homo sapiens, UniProt P10275, W742L); assay: Transcription assay (ARE-luciferase reporter) in CV-1 cells, AR W741L; format: cell-based; conditions: for Antagonist efficacy (RLU value at IC50), AR W741L: in competition with 250 nM DHT
T1 construct: expressed in transfected cells; host or cells: CV-1
T1 sequence (P10275 1-920 W742L): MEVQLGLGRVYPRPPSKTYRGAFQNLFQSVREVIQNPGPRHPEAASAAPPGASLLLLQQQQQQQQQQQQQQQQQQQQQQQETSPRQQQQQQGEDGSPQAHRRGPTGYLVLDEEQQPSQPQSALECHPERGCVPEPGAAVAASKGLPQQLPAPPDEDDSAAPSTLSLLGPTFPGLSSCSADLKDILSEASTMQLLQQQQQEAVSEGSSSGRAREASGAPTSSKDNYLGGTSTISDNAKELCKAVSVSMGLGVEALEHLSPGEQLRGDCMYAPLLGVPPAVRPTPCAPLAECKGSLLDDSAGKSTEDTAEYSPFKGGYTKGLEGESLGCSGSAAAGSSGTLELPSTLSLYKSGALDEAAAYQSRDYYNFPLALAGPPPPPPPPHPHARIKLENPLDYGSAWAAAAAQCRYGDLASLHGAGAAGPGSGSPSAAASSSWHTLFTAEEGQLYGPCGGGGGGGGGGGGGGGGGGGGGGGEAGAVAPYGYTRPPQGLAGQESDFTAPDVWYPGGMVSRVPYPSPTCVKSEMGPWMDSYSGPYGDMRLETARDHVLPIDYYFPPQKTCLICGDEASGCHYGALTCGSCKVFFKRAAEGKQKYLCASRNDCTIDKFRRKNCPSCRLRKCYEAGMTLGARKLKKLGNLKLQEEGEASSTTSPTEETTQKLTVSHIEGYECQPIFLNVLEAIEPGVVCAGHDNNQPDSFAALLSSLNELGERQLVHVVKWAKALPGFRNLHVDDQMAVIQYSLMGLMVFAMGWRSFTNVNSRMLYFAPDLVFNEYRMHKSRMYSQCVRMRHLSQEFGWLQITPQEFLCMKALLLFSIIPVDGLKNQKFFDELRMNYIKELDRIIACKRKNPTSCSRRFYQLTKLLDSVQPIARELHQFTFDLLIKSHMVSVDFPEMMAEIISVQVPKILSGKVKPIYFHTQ
Protocol: Twenty-four hours prior to transfection, CV-1 cells were seeded at a density of 45,000 cells per well in 24-well cell culture plates and grown in phenol red free Dulbecco's Modified Eagle Medium (DMEM) supplemented with 10% cosmic calf serum (COS). ARE-luciferase reporter and Renilla-Luc as the internal standard and a prokaryotic expression vector encoding the wild-type androgen receptor or mutant androgen receptor were transfected with Lipofectamine (Invitrogen) following manufacturer's protocol. Five hours after transfection, media was added containing the appropriate concentrations of ligands. The cells were allowed to incubate for 38 hours before harvesting by passive lysis buffer. Cell extracts were immediately assayed using the Dual Luciferase Assay (Promega) with a Perkin-Elmer Microbeta Luminometer. […] Dose-response data was analyzed by nonlinear regression analysis using GraphPad Prism.

[2] = biological target: T2, AR wt (Homo sapiens, UniProt P10275); assay: Competitive binding assay, [3H]DHT, transfected COS-7 cells, wild-type AR; parameters: expressed in transfected cells; host or cells: COS-7; conditions: 8 nM [3H]-DHT, read-out: Binding affinity (Ki), AR wt
T2 sequence (P10275 1-920): T1 sequence (P10275 1-920 W742L) with L742W
Protocol: Twenty-four hours prior to transfection, COS-7 cells were seeded at a density of 70,000 cells per well in 24-well cell culture plates and grown in phenol red free Dulbecco's Modified Eagle Medium (DMEM) supplement with 10% cosmic calf serum (CCS). The cells were transfected with a prokaryotic expression vector encoding the wild-type androgen receptor or mutant androgen receptor using Lipofectamine (Invitrogen) following manufacturer's protocol. […] Cells were washed with PBS and harvested in 2% SDS, 10% glycerol, and 10 mM Tris, pH 6.8, and radioactivity determined by scintillation counting.

SMILES: CN(C)CCCOc1cccc(Cc2ccccc2S(=O)(=O)CC(C)(O)C(=O)Nc2ccc(C#N)c(C(F)(F)F)c2)c1 (centres unmarked) [PAN22]
- IC50 [1]: 3 ± 1.8 µM
- Antagonist efficacy (RLU value at IC50), AR W741L [1]: (52% ± 4.9%)
- Ki [2]: 2.3 µM

SMILES: CC(O)(CS(=O)(=O)c1ccccc1-c1ccccc1O)C(=O)Nc1ccc(C#N)c(C(F)(F)F)c1 (centres unmarked) [PAN41, N-(4-cyano-3-(trifluoromethyl)phenyl)-2-hydroxy-3-(2′-hydroxybiphenyl-2-ylsulfonyl)-2-methylpropanamide]
- IC50 [1]: 5.8 ± 1.6 µM
- Antagonist efficacy (RLU value at IC50), AR W741L [1]: (50% ± 1.0%)

SMILES: CN(C)CCCOc1cccc(-c2ccccc2S(=O)(=O)CC(C)(O)C(=O)Nc2ccc(C#N)c(C(F)(F)F)c2)c1 (centres unmarked) [PAN52]
- IC50 [1]: 12.2 ± 6.2 µM
- Antagonist efficacy (RLU value at IC50), AR W741L [1]: (53% ± 5.2%)
- Ki [2]: 3 µM

SMILES: CN(C)CCCOc1ccc(-c2ccccc2S(=O)(=O)CC(C)(O)C(=O)Nc2ccc(C#N)c(C(F)(F)F)c2)cc1 (centres unmarked) [PAN62]
- IC50 [1]: 11 ± 11 µM
- Antagonist efficacy (RLU value at IC50), AR W741L [1]: (62% ± 12%)
- Ki [2]: 25 µM
